ChEMBL document CHEMBL1201862, “PubChem BioAssay data set” (2004)
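Five compound concentrations were applied to cells in 96-well plates for 48 hours; endpoints were derived by simple linear interpolation of the resulting dose-response curve. GI50 marks 50% less growth.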 Active and inactive are the calls of the source. Rule as the data show it: active = GI50 up to about 1.1 µM and inactive = higher.

Key:
Experiment in all cases: NCI-60 cell line screen, 48 h
HT-29 = test system: HT-29
NCI-H460 = test system: NCI-H460
OVCAR-3 = test system: OVCAR-3
K562 = test system: K562
786-0 = test system: 786-0
HCC 2998 = test system: HCC 2998
A549 = test system: A549
SNB-19 = test system: SNB-19
OVCAR-4 = test system: OVCAR-4
NCI-H522 = test system: NCI-H522
SK-MEL-28 = test system: SK-MEL-28
HL-60 = test system: HL-60
RPMI-8226 = test system: RPMI-8226
UO-31 = test system: UO-31
OVCAR-5 = test system: OVCAR-5
SF-295 = test system: SF-295
MCF7 = test system: MCF7
NCI/ADR-RES = test system: NCI/ADR-RES
MDA-MB-231 = test system: MDA-MB-231
MDA-N = test system: MDA-N

Row | Structure (SMILES) | GI50 (HT-29) | GI50 (NCI-H460) | GI50 (OVCAR-3) | GI50 (K562) | GI50 (786-0) | GI50 (HCC 2998) | GI50 (A549) | GI50 (SNB-19) | GI50 (OVCAR-4) | GI50 (NCI-H522) | GI50 (SK-MEL-28) | GI50 (HL-60) | GI50 (RPMI-8226) | GI50 (UO-31) | GI50 (OVCAR-5) | GI50 (SF-295) | GI50 (MCF7) | GI50 (NCI/ADR-RES) | GI50 (MDA-MB-231) | GI50 (MDA-N)
1 | CC1=C(/C=C/C(C)=C/C=C/C(C)=C/C=C/C=C(C)/C=C/C=C(C)/C=C/C2=C(C)C(=O)C(O)CC2(C)C)C(C)(C)CC(O)C1=O (stereo not drawn) | > 100 µM (inactive) | > 100 µM (inactive) | > 100 µM (inactive) | > 100 µM (inactive) | > 100 µM (inactive) | > 100 µM (inactive) | > 100 µM (inactive) | > 100 µM (inactive) | > 100 µM (inactive) | > 100 µM (inactive) | > 100 µM (inactive) | > 100 µM (inactive) | > 100 µM (inactive) | > 100 µM (inactive) | > 100 µM (inactive) | > 100 µM (inactive) | – | – | – | –
2 | O=c1c2cc3ccccc3n2c(=O)c2cc3ccccc3n12 | > 100 µM (inactive) | > 100 µM (inactive) | > 100 µM (inactive) | > 100 µM (inactive) | > 100 µM (inactive) | > 100 µM (inactive) | > 100 µM (inactive) | > 100 µM (inactive) | > 100 µM (inactive) | > 100 µM (inactive) | > 100 µM (inactive) | > 100 µM (inactive) | > 100 µM (inactive) | > 100 µM (inactive) | > 100 µM (inactive) | > 100 µM (inactive) | – | – | – | –
3 | CCSC1=N/C(=C\c2ccco2)C(=O)N1 | > 100 µM (inactive) | – | > 100 µM (inactive) | > 100 µM (inactive) | > 100 µM (inactive) | – | > 100 µM (inactive) | 70.8 µM (inactive) | – | > 100 µM (inactive) | > 100 µM (inactive) | – | > 100 µM (inactive) | > 100 µM (inactive) | > 100 µM (inactive) | > 100 µM (inactive) | 6.59 µM (inactive) | > 100 µM (inactive) | > 100 µM (inactive) | > 100 µM (inactive)
4 | Cc1nc2ccccc2c(=O)n1-c1ccccc1I | > 100 µM (inactive) | > 100 µM (inactive) | > 100 µM (inactive) | 96.4 µM (inactive) | > 100 µM (inactive) | > 100 µM (inactive) | > 100 µM (inactive) | > 100 µM (inactive) | > 100 µM (inactive) | > 100 µM (inactive) | > 100 µM (inactive) | > 100 µM (inactive) | > 100 µM (inactive) | 90.2 µM (inactive) | > 100 µM (inactive) | > 100 µM (inactive) | – | – | – | –
5 | N#CCCN(CCC#N)c1ccc(/C=N\c2ccc(F)cc2)cc1 | – | 7.01 µM (inactive) | > 79.1 µM (inactive) | 0.137 µM (active) | > 31.3 µM (inactive) | 1.33 µM (inactive) | 43.1 µM (inactive) | > 100 µM (inactive) | > 49.1 µM (inactive) | > 100 µM (inactive) | > 48.5 µM (inactive) | 6.46 µM (inactive) | > 39.8 µM (inactive) | 41.8 µM (inactive) | – | 12.3 µM (inactive) | > 100 µM (inactive) | – | > 100 µM (inactive) | 71.3 µM (inactive)
6 | COCN1C(=O)[C@@H]2CCCN2C(=O)c2cc(N)ccc21 | > 100 µM (inactive) | – | – | – | > 100 µM (inactive) | – | > 100 µM (inactive) | > 100 µM (inactive) | > 100 µM (inactive) | > 100 µM (inactive) | > 100 µM (inactive) | – | – | > 100 µM (inactive) | > 100 µM (inactive) | > 100 µM (inactive) | > 100 µM (inactive) | > 100 µM (inactive) | > 100 µM (inactive) | > 100 µM (inactive)
7 | CCOC(=O)C(NC(=O)c1cccc(Cl)c1)(N1CCN(c2cc3c(cc2F)c(=O)c(C(=O)O)cn3C2CC2)CC1)C(F)(F)F (stereo not drawn) | – | 16.7 µM (inactive) | 10.7 µM (inactive) | 4.78 µM (inactive) | 14.6 µM (inactive) | 19.4 µM (inactive) | 15.2 µM (inactive) | 22.2 µM (inactive) | 15.7 µM (inactive) | – | 16.5 µM (inactive) | 2.67 µM (inactive) | 3.94 µM (inactive) | 20.1 µM (inactive) | 16.7 µM (inactive) | 21.6 µM (inactive) | – | – | 15.6 µM (inactive) | 15.2 µM (inactive)
8 | CC(=O)NC(CSC1=C2NC(=O)\C=C/C=C\C=C/C(C)C(O)CC(=O)/C(C)=C\CC(O)/C=C\C(C)C(O)C(C)C=C(C)C(=O)c3c(O)c(C)cc(c3C1=O)C2=O)C(=O)O (stereo not drawn) | 47.2 µM (inactive) | 94 µM (inactive) | 96.6 µM (inactive) | 39.1 µM (inactive) | 89.7 µM (inactive) | – | > 100 µM (inactive) | 61.4 µM (inactive) | > 100 µM (inactive) | 17.3 µM (inactive) | 30.3 µM (inactive) | 23.6 µM (inactive) | – | > 100 µM (inactive) | > 100 µM (inactive) | > 100 µM (inactive) | 53.3 µM (inactive) | > 100 µM (inactive) | 24.6 µM (inactive) | 51.4 µM (inactive)
9 | CCOC(=O)c1cnc2[nH]ccn2c1=O | > 10 µM (inactive) | > 10 µM (inactive) | > 10 µM (inactive) | > 10 µM (inactive) | > 10 µM (inactive) | – | > 10 µM (inactive) | > 10 µM (inactive) | > 10 µM (inactive) | – | > 10 µM (inactive) | > 10 µM (inactive) | > 10 µM (inactive) | > 10 µM (inactive) | > 10 µM (inactive) | > 10 µM (inactive) | > 10 µM (inactive) | > 10 µM (inactive) | > 10 µM (inactive) | > 10 µM (inactive)
10 | CCO[C@@H]1C2C=CC(C2)[C@H]1[N+](=O)[O-] (stereo partly drawn) | > 100 µM (inactive) | > 100 µM (inactive) | > 100 µM (inactive) | 73.5 µM (inactive) | > 100 µM (inactive) | > 100 µM (inactive) | > 100 µM (inactive) | > 100 µM (inactive) | > 100 µM (inactive) | 64 µM (inactive) | > 100 µM (inactive) | 47.3 µM (inactive) | 72.1 µM (inactive) | > 100 µM (inactive) | > 100 µM (inactive) | > 100 µM (inactive) | – | – | – | –
11 | N=C(N)N/N=C/c1c(Cl)nc2n1CCS2 | 38 µM (inactive) | 48.4 µM (inactive) | 44.4 µM (inactive) | 53.2 µM (inactive) | 49.4 µM (inactive) | 45.3 µM (inactive) | 62.5 µM (inactive) | > 100 µM (inactive) | > 100 µM (inactive) | 42.4 µM (inactive) | > 100 µM (inactive) | > 100 µM (inactive) | > 100 µM (inactive) | > 100 µM (inactive) | 76.9 µM (inactive) | 99.1 µM (inactive) | 46.1 µM (inactive) | > 100 µM (inactive) | – | 29 µM (inactive)
12 | C[C@@]12CCC(=O)c3coc(c31)C(=O)c1cc3c(cc12)C(=O)C=CC3=O [HELENAQUINONE] | 19.7 µM (inactive) | 26.6 µM (inactive) | 18.7 µM (inactive) | > 22.2 µM (inactive) | 17.2 µM (inactive) | > 71.3 µM (inactive) | 45.2 µM (inactive) | > 100 µM (inactive) | 18.2 µM (inactive) | 9.2 µM (inactive) | 16.3 µM (inactive) | 2.45 µM (inactive) | 64.6 µM (inactive) | 17.2 µM (inactive) | 20 µM (inactive) | 16.7 µM (inactive) | – | – | – | –
